Assay results published in patent US20050004016A1, “Method of obtaining peptides with tissue-specific activity and pharmaceutical compositions on their basis” (priority 2000, published 2005).
Residues, ends and D or L forms follow the SMILES beside them.

How the values were obtained:
[1] = tested on: brain subcortical structure explants; assay: Growth of brain subcortical structure explants (square index, organotypic culture); type: cell-based, chicken embryos; conditions: 100 ng/ml, control SI = 100%
Procedure: Experiments were conducted on 69 fragments of brain subcortical structures of 10-11-days' old chicken embryos. The nutrient medium for cultivation consisted of 35% Eagle's solution, 25% calf foetal serum, 35% Hanks' solution, 5% chicken embryonic extract. The medium was also added glucose (0.6%), insulin (0.5 unit/ml), penicillin (100 unit/ml), glutamine (2 mM). Fragments of the brain subcortical structures were placed in this medium and cultivated in Petri's dishes in a thermostat at 36.7° C. for 48 hours. The experimental medium was added Ala-Glu-Asp-Gly tetrapeptide and Epithalamin in the concentrations of 2, 10, 20, 50, 100, 200, 400 ng/ml. Square index (SI) considered the criterion of biological activity. It was counted as the ratio between the total explant square including the growth zone and the initial square of the subcortical structure fragment Significance of differences between the average values of SI was assessed by Student's t-criterion. ST values were expressed percent, the control SI value being taken for 100%.
The growth zone of the control explants of the brain, subcortical structures included short neurites, migrating glia and fibroblast-resembling cells.
Immediate influence of the substances upon the fragments of the brain subcortical structures was investigated in the following experimental series.

cerebral cortex explants = assay: Growth of cerebral cortex explants (square index, organotypic culture); type: cell-based, chicken embryos
Procedure: The experiments are conducted on 73 fragments of cerebral cortex explants of 10-11-days' chicken embryos. The nutrient medium for cultivation consisted of 35% Eagle's solution, 25% calf foetal serum, 35% Hanks' solution, 5% chicken embryonic extract. The medium was also added glucose (0.6%), insulin (0.5 unit/ml), penicillin (100 unit/ml), glutamine (2 mM). Fragments of the cerebral cortex were placed in this medium and cultivated in Petri's dishes in a thermostat at 36.7° C. for 48 hours. The experimental medium is was added Ala-Glu-Asp-Pro tetrapeptide and Cortexin in the concentrations of 2, 10, 20, 50, 100, 200, 400 ng/ml. Square index (SI) was considered the criterion of biological activity. It was counted as the ratio between the total explant square including the growth zone and the initial square of the cerebral cortex fragment and. Significance of differences between the average values of SI was assessed by Student's t-criterion. SI values were expressed per cent, the control SI value being taken for 100%.
The growth zone of the control cerebral cortex explants included short neurites, migrating glia and fibroblast cells.
Immediate influence of the substances upon the cerebral cortex fragments was investigated in the following experimental series.

[2] = tested on: monolayer hepatocyte culture; assay: Intensity of protein synthesis ([3H]-leucin inclusion) in monolayer hepatocyte culture; type: cell-based, rats; conditions: 0.005 μg/ml, 4 hours
Procedure: Intensity of the protein synthesis was investigated in the hepatocyte culture of rats aged 4, 8 and 18 months.
To isolate hepatocytes, rat liver was perfused with calcium-free Hanks' solution added 0.5 mM of EDTA and then 0.05% collagenase solution in Medium 199. The cellular suspension was filtered out and centrifuged. The hepatocyte suspension in the concentration of 5×10^5 was introduced into Petri's dishes, their bottoms surfaced with collagen-covered glass. Applied Medium 199 contained no bovine serum but was added 0.2 mg/ml of albumen and 5 μg/ml of insulin. The dishes with glass-covered bottoms were placed in a thermostat at 37° C., aerated and added CO2. […]
Protein synthesis was assessed by [^3H]-leucin inclusion regarding the standard errors for a free marked leucin pull in the same culture. […] Radioactivity of the pull of free intracellular leucin and cellular proteins (in hyamine fraction) after adding the corresponding scintillators was measured on a radioactivity counter SL-30.
The intensity of protein synthesis was calculated by the formula Icorr=Ii×Pav/Pi(cpm), where
Icorr—inclusion of leucin regarding the standard errors of free leucin pull, Ii—measured radioactivity of the proteins for i-culture, Pav—mean radioactivity of proteins and pull for the cultures studied in this experiment, Pi—total radioactivity of proteins and pull of the same culture. […]

liver explants = assay: Growth of liver explants (square index, organotypic culture); type: cell-based, chicken embryos; conditions: 20 ng/ml
Procedure: The experiments were carried out in 53 liver fragments of 10-11 days old chicken embryos. Nutrient medium for the explant cultivation consisted of 35% of Eagle's solution, 25% of foetal calf serum, 35% of Hank's solution and 5% of chicken embryonic extract. The mixture is added glucose (0.6%), insulin (0.5 unit/ml), penicillin (100 unit/m) and glutamine (2 mM). […] Lys-Glu-Asp-Ala tetrapeptide was added to the experimental medium in the concentrations of 2, 10, 20, 50, 100, 200 and 400 ng/mL Square index (SI) was taken for a biological activity criterion and calculated as a correlation of the total explant square including the growth zone to the initial square of a liver fragment. The SI values were expressed percent, the control SI value taken for 100%.

## C[C@H](N)C(=O)N[C@@H](CCC(=O)O)C(=O)N[C@@H](CC(=O)O)C(=O)NCC(=O)O [Ala-Glu-Asp-Gly tetrapeptide, alanyl-glutamyl-aspartyl-glycine] (H-AEDG-OH)
[1]
  SI of the experimental explants higher than that of the control fragments: 24%

## C[C@H](N)C(=O)N[C@@H](CCC(=O)O)C(=O)N[C@@H](CC(=O)O)C(=O)N1CCC[C@H]1C(=O)O [Ala-Glu-Asp-Pro tetrapeptide, L-alanyl-L-glutamyl-L-aspartyl-L-proline] (H-AEDP-OH)
Cerebral cortex explants; 20 ng/ml, control SI = 100%
  SI of the experimental explants higher than that of the control cerebral cortex fragments: 40±7%
Cerebral cortex explants; tested 2-400 ng/ml
  concentration stimulating the fragments of cultivated cerebral cortex (threshold of effective concentrations): 20 ng/mL

## C[C@H](NC(=O)[C@H](CC(=O)O)NC(=O)[C@H](CCC(=O)O)NC(=O)[C@@H](N)CCCCN)C(=O)O [Lys-Glu-Asp-Ala tetrapeptide, lysyl-glutamyl-aspartyl-alanine] (H-KEDA-OH)
[2]; hepatocytes of older rats
  amplitude of synthesis oscillations: increased considerably
[2]; hepatocytes of rats aged 4, 8 and 18 months, strongest effect in cells of older animals
  level of protein synthesis in hepatocytes: raised the level of protein synthesis
Liver explants; cultivation up to 7 days
  effect on liver explants by longer terms of cultivation: analogous stimulating effect
Liver explants; third day of the cultivation, control SI = 100%
  increase in the explant SI as compared to the control value: 24%
